{"source": "patent US9346812B2", "about": "“Substituted pyrrolopyrimidine compounds, compositions thereof, and methods of treatment therewith” (Signal Pharmaceutical LLC, priority 2013, dated 2016)", "data": [{"tested_on": "CAL51 cell proliferation", "assay": "Cell Titer Glo Proliferation Assay (CAL51)", "format": "cell-based, human", "details": "Homo sapiens, CAL-51, 72 h, read-out: Act. Level", "summary_of_the_method": "(§1)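 Viability is measured by CellTiter-Glo luminescence after 72 h of compound exposure. CAL51 cells were seeded in growth medium with 10% FBS and 2 mM glutamine, cultured overnight, then dosed with compound dilutions, vehicle held at 0.2% DMSO.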", "units": {"IC50": "µM"}, "values": [{"smiles": "CNC(=O)c1ccc(Nc2nc(OC3CCCC3)c3c(-c4ccc(O)cc4)c[nH]c3n2)cc1", "note": "[Example 1, 4-(4-(cyclopentyloxy)-5-(4-hydroxyphenyl)-7H-pyrrolo[2,3-d]pyrimidin-2-ylamino)-N-methylbenzamide]", "IC50": "< 0.1"}]}, {"tested_on": "CAL51 cell proliferation", "assay": "Cell Titer Glo Proliferation Assay (CAL51)", "format": "cell-based, human", "details": "Homo sapiens, CAL-51; CAL51 cell proliferation, 72 h, Cell Titer Glo luminescence; read-out: Act. Level", "summary_of_the_method": "as §1", "units": {"IC50": "µM"}, "values": [{"smiles": "CNC(=O)c1ccc(-c2c[nH]c3nc(Nc4ccc(C(=O)NC)cc4OC)nc(OC)c23)cc1", "note": "[Example 124, 3-methoxy-4-(4-methoxy-5-(4-(methylcarbamoyl)phenyl)-7H-pyrrolo[2,3-d]pyrimidin-2-ylamino)-N-methylbenzamide]", "IC50": "0.1 to 0.4"}, {"smiles": "CNC(=O)c1ccc(Nc2nc(OC3CCCC3)c3c(-c4ccc5nc[nH]c5c4)c[nH]c3n2)c(OC)c1", "note": "[Example 30, 4-(5-(1H-benzo[d]imidazol-6-yl)-4-(cyclopentyloxy)-7H-pyrrolo[2,3-d]pyrimidin-2-ylamino)-3-methoxy-N-methylbenzamide]", "IC50": "< 0.1"}, {"smiles": "COc1cc(C(=O)NC[C@@H]2CCCO2)ccc1Nc1nc(OC2CCCC2)c2c(-c3ccc4nc(C)oc4c3)c[nH]c2n1", "note": "[Example 254, (S)-4-(4-(cyclopentyloxy)-5-(2-methylbenzo[d]oxazol-6-yl)-7H-pyrrolo[2,3-d]pyrimidin-2-ylamino)-3-methoxy-N-((tetrahydrofuran-2-yl)methyl) benzamide]", "IC50": "0.1 to 0.4"}, {"smiles": "CNC(=O)c1ccc(Nc2nc(OC3CCCC3)c3c(-c4ccc5nc(C)oc5c4)c[nH]c3n2)c(C)c1", "note": "[Example 94, 4-(4-(cyclopentyloxy)-5-(2-methylbenzo[d]oxazol-6-yl)-7H-pyrrolo[2,3-d]pyrimidin-2-ylamino)-N,3-dimethylbenzamide]", "IC50": "0.4 to 1"}, {"smiles": "CNCCOc1nc(Nc2ccc(C(=O)NC)cc2OC)nc2[nH]cc(-c3ccc4nc(C)oc4c3)c12", "note": "[Example 138, 3-methoxy-N-methyl-4-(4-(2-(methylamino)ethoxy)-5-(2-methylbenzo[d]oxazol-6-yl)-7H-pyrrolo[2,3-d]pyrimidin-2-ylamino)benzamide]", "IC50": "1 to 10"}, {"smiles": "CNC(=O)c1ccc(Nc2nc(OC3CCCC3)c3c(-c4cccc(C(C)(C)O)c4)c[nH]c3n2)c(OC)c1", "note": "[Example 47, 4-(4-(cyclopentyloxy)-5-(3-(2-hydroxypropan-2-yl)phenyl)-7H-pyrrolo[2,3-d]pyrimidin-2-ylamino)-3-methoxy-N-methylbenzamide]", "IC50": "0.4 to 1"}, {"smiles": "COc1cc(C(=O)N[C@H]2CCC[C@@H]2O)ccc1Nc1nc(OC2CCCC2)c2c(-c3ccc4nc(C)oc4c3)c[nH]c2n1", "note": "[Example 265, 4-(4-(cyclopentyloxy)-5-(2-methylbenzo[d]oxazol-6-yl)-7H-pyrrolo[2,3-d]pyrimidin-2-ylamino)-N-((1S,2S)-2-hydroxy-cyclopentyl)-3-methoxybenzamide]", "IC50": "0.1 to 0.4"}, {"smiles": "CNC(=O)c1ccc(-c2c[nH]c3nc(Nc4ccc(C(=O)N(C)C)cc4C)nc(OC4CCOCC4)c23)cn1", "note": "[Example 159, 5-(2-(4-(dimethylcarbamoyl)-2-methylphenylamino)-4-(tetrahydro-2H-pyran-4-yloxy)-7H-pyrrolo[2,3-d]pyrimidin-5-yl)-N-methylpicolinamide]", "IC50": "< 0.1"}, {"smiles": "CNC(=O)c1ccc(Nc2nc(OC3CCCC3)c3c(-c4ccc5oc(C)nc5c4)c[nH]c3n2)c(OC)c1", "note": "[Example 35, 4-(4-(cyclopentyloxy)-5-(2-methylbenzo[d]oxazol-5-yl)-7H-pyrrolo[2,3-d]pyrimidin-2-ylamino)-3-methoxy-N-methylbenzamide]", "IC50": "1 to 10"}, {"smiles": "COc1cc(NC(C)=O)ccc1Nc1nc(OC2CCCC2)c2c(-c3ccc4nc(C)oc4c3)c[nH]c2n1", "note": "[Example 247, N-(4-(4-(cyclopentyloxy)-5-(2-methylbenzo[d]oxazol-6-yl)-7H-pyrrolo[2,3-d]pyrimidin-2-ylamino)-3-methoxyphenyl) acetamide]", "IC50": "0.1 to 0.4"}, {"smiles": "CNc1nc(Nc2ccc(C(=O)N(C)C)cc2Cl)nc2[nH]cc(-c3ccc(-c4nnc[nH]4)cc3)c12", "note": "[Example 72, 4-(5-(4-(4H-1,2,4-triazol-3-yl)phenyl)-4-(methylamino)-7H-pyrrolo[2,3-d]pyrimidin-2-ylamino)-3-chloro-N,N-dimethylbenzamide]", "IC50": "0.4 to 1"}, {"smiles": "CNC(=O)c1ccc(Nc2nc(OC3CCOCC3)c3c(-c4ccc(-c5nc(C)c(C)[nH]5)cc4)c[nH]c3n2)c(OC)c1", "note": "[Example 197, 4-(5-(4-(4,5-dimethyl-1H-imidazol-2-yl)phenyl)-4-(tetrahydro-2H-pyran-4-yloxy)-7H-pyrrolo[2,3-d]pyrimidin-2-ylamino)-3-methoxy-N-methylbenzamide]", "IC50": "0.1 to 0.4"}, {"smiles": "Cc1nc2ccc(-c3c[nH]c4nc(Nc5ccc(C(=O)N(C)C)cc5C)nc(O[C@H]5CC[C@H](O)CC5)c34)cc2o1", "note": "[Example 92, 4-(4-((1r,4r)-4-hydroxycyclo-hexyloxy)-5-(2-methylbenzo[d]oxazol-6-yl)-7H-pyrrolo[2,3-d]pyrimidin-2-ylamino)-N,N,3-trimethylbenzamide]", "IC50": "< 0.1"}, {"smiles": "Cc1nc2ccc(-c3c[nH]c4nc(Nc5ccc6c(c5)CN(C)C6=O)nc(OC5CCCC5)c34)cc2o1", "note": "[Example 244, 5-(4-(cyclopentyloxy)-5-(2-methylbenzo[d]oxazol-6-yl)-7H-pyrrolo[2,3-d]pyrimidin-2-ylamino)-2-methylisoindolin-1-one]", "IC50": "< 0.1"}, {"smiles": "CNC(=O)c1ccc(Nc2nc(O[C@H]3CC[C@@H](O)CC3)c3c(-c4ccc(O)cc4)c[nH]c3n2)c(OC)c1", "note": "[Example 46, 4-(4-((1s,4s)-4-hydroxycyclo-hexyloxy)-5-(4-hydroxyphenyl)-7H-pyrrolo[2,3-d]pyrimidin-2-ylamino)-3-methoxy-N-methylbenzamide]", "IC50": "< 0.1"}, {"smiles": "COc1cc(C(=O)NCCO)ccc1Nc1nc(OC2CCOCC2)c2c(-c3ccc4nc(C)oc4c3)c[nH]c2n1", "note": "[Example 213, N-(2-hydroxyethyl)-3-methoxy-4-(5-(2-methylbenzo[d]oxazol-6-yl)-4-(tetrahydro-2H-pyran-4-yloxy)-7H-pyrrolo[2,3-d]pyrimidin-2-ylamino)benzamide]", "IC50": "< 0.1"}, {"smiles": "CNC(=O)c1ccc(Nc2nc(OC(C)C)c3c(-c4ccnc(NC)c4)c[nH]c3n2)c(OC)c1", "note": "[Example 199, 4-(4-isopropoxy-5-(2-(methylamino)pyridin-4-yl)-7H-pyrrolo[2,3-d]pyrimidin-2-ylamino)-3-methoxy-N-methylbenzamide]", "IC50": "< 0.1"}, {"smiles": "Cc1nc2ccc(-c3c[nH]c4nc(Nc5ccc(C(=O)N(C)C)cc5C)nc(O[C@@H]5CCCOC5)c34)cc2o1", "note": "[Example 121, (R)-N,N,3-trimethyl-4-(5-(2-methylbenzo[d]oxazol-6-yl)-4-(tetrahydro-2H-pyran-3-yloxy)-7H-pyrrolo[2,3-d]pyrimidin-2-ylamino)benzamide]", "IC50": "0.1 to 0.4"}, {"smiles": "COc1cc(C(=N)N)ccc1Nc1nc(OC2CCCC2)c2c(-c3ccc4nc(C)oc4c3)c[nH]c2n1", "note": "[Example 287, 4-(4-(cyclopentyloxy)-5-(2-methylbenzo[d]oxazol-6-yl)-7H-pyrrolo[2,3-d]pyrimidin-2-ylamino)-3-methoxybenzimidamide]", "IC50": "1 to 10"}, {"smiles": "COc1cc(C(=O)N[C@@H](C)CO)ccc1Nc1nc(OC2CCCC2)c2c(-c3ccc4nc(C)oc4c3)c[nH]c2n1", "note": "[Example 215, (S)-4-(4-(cyclopentyloxy)-5-(2-methylbenzo[d]oxazol-6-yl)-7H-pyrrolo[2,3-d]pyrimidin-2-ylamino)-N-(1-hydroxypropan-2-yl)-3-methoxybenzamide]", "IC50": "< 0.1"}, {"smiles": "COc1cc(-c2cn[nH]c2)ccc1Nc1nc(OC2CCCC2)c2c(-c3ccc(O)cc3)c[nH]c2n1", "note": "[Example 50, 4-(4-(cyclopentyloxy)-2-(2-methoxy-4-(1H-pyrazol-4-yl)phenylamino)-7H-pyrrolo[2,3-d]pyrimidin-5-yl) phenol]", "IC50": "< 0.1"}, {"smiles": "CNC(=O)c1ccc(Nc2nc(OC(C)C)c3c(-c4cccc(S(C)(=O)=O)c4)c[nH]c3n2)c(OC)c1", "note": "[Example 187, 4-(4-isopropoxy-5-(3-(methylsulfonyl)phenyl)-7H-pyrrolo[2,3-d]pyrimidin-2-ylamino)-3-methoxy-N-methylbenzamide]", "IC50": "0.1 to 0.4"}, {"smiles": "CNC(=O)c1ccc(Nc2nc(OC3CCCC3)c3c(-c4cccc(N)c4)c[nH]c3n2)c(OC)c1", "note": "[Example 65, 4-(5-(3-aminophenyl)-4-(cyclopentyloxy)-7H-pyrrolo[2,3-d]pyrimidin-2-ylamino)-3-methoxy-N-methylbenzamide]", "IC50": "< 0.1"}, {"smiles": "CNC(=O)c1ccc(Nc2nc(OC3CCCC3)c3c(-c4ccc(O)cc4)c[nH]c3n2)c(C)c1", "note": "[Example 9]", "IC50": "< 0.1"}, {"smiles": "COc1cc(C(=O)N(C)C)ccc1Nc1nc(OC2CCCC2)c2c(-c3ccc(O)cc3)c[nH]c2n1", "note": "[Example 31, 4-(4-(cyclopentyloxy)-5-(4-hydroxyphenyl)-7H-pyrrolo[2,3-d]pyrimidin-2-ylamino)-3-methoxy-N,N-dimethylbenzamide]", "IC50": "< 0.1"}, {"smiles": "CNC(=O)c1ccc(Nc2nc(OC3CCOCC3)c3c(-c4cncnc4)c[nH]c3n2)c(OC)c1", "note": "[Example 154, 3-methoxy-N-methyl-4-(5-(pyrimidin-5-yl)-4-(tetrahydro-2H-pyran-4-yloxy)-7H-pyrrolo[2,3-d]pyrimidin-2-ylamino) benzamide]", "IC50": "0.1 to 0.4"}, {"smiles": "CNC(=O)c1ccc(Nc2nc(OC3CCCC3)c3c(-c4ccc5ncccc5c4)c[nH]c3n2)c(OC)c1", "note": "[Example 306, 4-(4-(cyclopentyloxy)-5-(quinolin-6-yl)-7H-pyrrolo[2,3-d]pyrimidin-2-ylamino)-3-methoxy-N-methylbenzamide]", "IC50": "< 0.1"}, {"smiles": "CNC(=O)c1ccc(Nc2nc(OCCOC)c3c(-c4ccc5nc(C)oc5c4)c[nH]c3n2)c(OC)c1", "note": "[Example 139, 3-methoxy-4-(4-(2-methoxyethoxy)-5-(2-methylbenzo[d]oxazol-6-yl)-7H-pyrrolo[2,3-d]pyrimidin-2-ylamino)-N-methylbenzamide]", "IC50": "< 0.1"}, {"smiles": "CNC(=O)c1ccc(Nc2nc(OC3CCOCC3)c3c(-c4ccnc(O)c4)c[nH]c3n2)c(OC)c1", "note": "[Example 147, 4-(5-(2-hydroxypyridin-4-yl)-4-(tetrahydro-2H-pyran-4-yloxy)-7H-pyrrolo[2,3-d]pyrimidin-2-ylamino)-3-methoxy-N-methylbenzamide]", "IC50": "0.1 to 0.4"}]}]}
